43 compounds from US10807994B2, “Heterocyclic compounds and uses thereof” (NUVATION BIO INC., priority 2017, dated 2020) can be followed below.

The target in one test is WEE1 kinase enzyme (Homo sapiens (Human), UniProt P30291). Description: WEE1 IC50 determination, LanthaScreen Terbium labeled TR-FRET kinase assay. In kind it is biochemical. The settings on record: WEE1 enzyme 1 nM. Here is the method:
IC50 values of compounds against WEE1 kinase enzyme were determined by LanthaScreen™ Terbium Labeled TR-FRET assay. Kinase assays were performed in 1× kinase buffer (# PV6135, Invitrogen, Life Technologies Grand Island, N.Y.) where total reaction volume was 10 μl in low-volume 384-well plates (#4511, Corning). Serially diluted compounds (3-fold) were incubated with WEE1 Enzyme (1 nM) (# PR7373A, Invitrogen, Life Technologies Grand Island, N.Y.) for 10 min, following which a mixture of ATP […] (# A1852, Sigma, St-Louis, Mo.) and fluorescent-PolyGT substrate (200 nM) (# PV3610, Invitrogen, Life Technologies Grand Island, N.Y.) was added and incubated in dark at room temperature for 1 h. After 1 h, 10 μl stop solution containing Terbium labeled antibody (4 nM) (# PV3529, Invitrogen, Life Technologies Grand Island, N.Y.) and EDTA (# E5134, Sigma, St-Louis, Mo.) (20 mM) in TR-FRET dilution buffer (# PV3574, Invitrogen, Life Technologies Grand Island, N.Y.) was added. Readings were taken in a Synergy Neo Plate reader (BioTek, Winooski) at single excitation of 340 nm and Dual emission at 495 nm and 520 nm respectively.
The % activity of test samples was calculated as (Sample−Min)*100/(Max−Min). [Max: DMSO control, complete reaction with enzyme & DMSO and Min: No enzyme & DMSO]. Percent inhibition (100-% activity) was fitted to the “four-parameter logistic model” in XLfit for determination of IC50 values.
For orientation: In TR-FRET formats the signal depends on donor and acceptor labels being close together.

The next test has as its system A427 cells. The experiment in a line: Cytotoxicity assay (resazurin), A427 cells, 72 hr. In kind it is cell-based. The settings on record: Homo sapiens, A-427, read-out: Cell Viability A427 IC50. Here is the method:
A549 (CCL-185; ATCC) and A427 (HTB-53; ATCC), both lung epithelial cell lines were seeded in their respective medium (DMEM/MEM, 10569044/41090101; Gibco) at a cell count of 1500 cells per 100 μL per well in a 96 well edge plate (167425; ThermoFisher). Cells were allowed to grow at 37° C. for 24 hr in 5% CO2 environment (culture conditions) in a Nuaire incubator (humidified). Serially diluted test compounds (100 μL) within the desired testing concentration ranges were added to the culture plate were further incubated in culture conditions for 72 hr and 96 hr for A427 and A549 respectively. The experiment was terminated at the designated incubation time by replacing the medium with 100 μL of 1 mM of resazurin (R7017; Sigma) prepared in respective culture medium, and the plates were further incubated in culture conditions for 4-6 hr. Fluorescence was recorded using a multimodal plate reader (Biotek Synergy Neo) at an excitation wavelength of 535 nm and emission wavelength of 590 nm to obtain relative fluorescence units. Data analysis was done by subtracting the background fluorescence (only medium blank) value from each reading and then normalizing with the vehicle control (DMSO treated cells) to obtain percent survival/proliferation. Percent survival was then subtracted by 100 to get the percent inhibition of proliferation which was used to calculate IC50 values. Potency of compounds in other cell lines (As-Pc-1, Panc-10.05, MDAMB231, A172) was determined in an analogous manner.

WEE1 kinase enzyme, sequence (P30291 whole entry): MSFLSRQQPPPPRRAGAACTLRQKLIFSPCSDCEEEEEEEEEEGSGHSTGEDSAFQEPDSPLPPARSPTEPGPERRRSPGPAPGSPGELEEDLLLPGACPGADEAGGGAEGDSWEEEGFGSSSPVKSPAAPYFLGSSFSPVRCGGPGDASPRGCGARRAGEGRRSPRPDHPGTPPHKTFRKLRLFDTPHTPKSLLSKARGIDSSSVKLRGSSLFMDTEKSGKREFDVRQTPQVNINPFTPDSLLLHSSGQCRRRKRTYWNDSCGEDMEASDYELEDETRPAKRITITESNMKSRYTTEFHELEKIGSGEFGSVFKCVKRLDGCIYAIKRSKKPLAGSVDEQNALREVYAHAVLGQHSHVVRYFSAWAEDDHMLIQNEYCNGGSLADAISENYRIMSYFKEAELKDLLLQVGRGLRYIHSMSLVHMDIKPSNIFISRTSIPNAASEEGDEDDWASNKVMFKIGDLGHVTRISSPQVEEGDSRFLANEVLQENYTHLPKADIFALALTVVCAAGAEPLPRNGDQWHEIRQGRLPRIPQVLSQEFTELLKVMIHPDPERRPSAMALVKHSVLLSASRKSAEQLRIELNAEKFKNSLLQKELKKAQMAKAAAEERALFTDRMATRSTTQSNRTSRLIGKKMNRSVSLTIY

What is called IC50 is the point on the concentration scale where inhibition reaches its midpoint. For `CCN1Cc2cc(Nc3ncc4c(n3)OCN(c3c(Cl)cccc3Cl)C4=O)ccc2C(C)(C)C1` [Example 1.22], the IC50 at WEE1 kinase enzyme was found to be 30 nM.

In the case of `CC1(C)CNCc2cc(Nc3ncc4c(n3)SCN(c3c(F)cccc3Cl)C4=O)ccc21` [Example 1.238], the IC50 on WEE1 kinase enzyme was determined as 45 nM; in the test on A427 cells, 5290 nM.

Take `CN(C)C1CCN(c2ccc(Nc3ncc4c(n3)SCN(c3c(F)cccc3Cl)C4=O)cc2Cl)CC1` [Example 1.245]: the IC50 was 297 nM on WEE1 kinase enzyme and 1140 nM with A427 cells.

On to `C[C@@H]1CN(c2ccc(Nc3ncc4c(n3)OCN(c3c(Cl)cccc3Cl)C4=O)cc2Cl)CCN1` [Example 1.919], for which, at WEE1 kinase enzyme, the IC50 turned out to be 340 nM.

With `CN(C)C1CCN(c2ccc(Nc3ncc4c(n3)SCN(c3c(Cl)cccc3Cl)C4=O)cc2)CC1` [Example 1.232], the half-inhibitory concentration (IC50) stood at 273 nM at WEE1 kinase enzyme and 1120 nM in the test with A427 cells.

Take `O=C1c2cnc(Nc3ccc4c(c3)NCCN4)nc2OCN1c1c(Cl)cccc1Cl` [Example 1.226]: the IC50 worked out at 188 nM on WEE1 kinase enzyme and 5360 nM in the test with A427 cells.

As to `O=C1c2cnc(Nc3ccc4c(c3)CCCN4)nc2OCN1c1c(Cl)cccc1Cl` [Example 1.224], the IC50 on WEE1 kinase enzyme is 232 nM; with A427 cells, 12100 nM.

With `C[C@@H]1CN(c2ccc(Nc3ncc4c(n3)OCN(c3c(Cl)cccc3Cl)C4=O)cc2)CCN1` [Example 1.173], the half-inhibitory concentration (IC50) was determined as 87 nM at WEE1 kinase enzyme and 3320 nM in the test on A427 cells.

On to `CN1CCN(c2ccc(Nc3ncc4c(n3)OCN(c3ccc(F)cc3Cl)C4=O)cc2)CC1` [Example 1.11], for which, at WEE1 kinase enzyme, the IC50 stood at 837 nM.

Turning to `C[C@H]1CNCCN1c1ccc(Nc2ncc3c(n2)OCN(c2c(Cl)cccc2Cl)C3=O)cc1` [Example 1.172], the IC50 at WEE1 kinase enzyme was 66 nM; with A427 cells, 4900 nM.

For `CC(C)N1CCN(c2ccc(Nc3ncc4c(n3)OCN(c3c(Cl)cccc3Cl)C4=O)cc2)CC1` [Example 1.19], on WEE1 kinase enzyme, the IC50 came out at 206 nM.

In the case of `O=C1c2cnc(Nc3ccc4c(c3)NCCC4)nc2OCN1c1c(Cl)cccc1Cl` [Example 1.121], the half-inhibitory concentration (IC50) is 501 nM at WEE1 kinase enzyme and 7330 nM in the test with A427 cells.

Consider `O=C1c2cnc(Nc3ccc4[nH]ccc4c3)nc2OCN1c1c(Cl)cccc1Cl` [Example 1.175], for which the concentration for half-maximal inhibition (IC50) at WEE1 kinase enzyme is 66 nM; in the test with A427 cells, 22000 nM.

As for `O=C1c2cnc(Nc3ccc4[nH]ncc4c3)nc2OCN1c1c(Cl)cccc1Cl` [Example 1.87], the IC50 at WEE1 kinase enzyme came out at 777 nM; with A427 cells it was 25400 nM.

Regarding `CN(C)C1CCN(c2ccc(Nc3ncc4c(n3)OCN(c3c(Cl)cccc3Cl)C4=O)cc2)CC1` [Example 1.223], the IC50 at WEE1 kinase enzyme is 32 nM; in the test on A427 cells it was 1660 nM.

Turning to `CN1CCN(c2ccc(Nc3ncc4c(n3)SCN(c3c(Cl)cccc3Cl)C4=O)cc2)CC1` [Example 1.230], the IC50 on WEE1 kinase enzyme is 561 nM; with A427 cells, 4940 nM.

For the compound `Cc1cc(Nc2ncc3c(n2)SCN(c2c(Cl)cccc2Cl)C3=O)ccc1N1CCNCC1` [Example 1.235], the half-maximal inhibitory concentration (IC50) worked out at 111 nM at WEE1 kinase enzyme and 2900 nM in the test with A427 cells.

As for `O=C1c2cnc(Nc3ccc(N4CCNCC4CO)cc3)nc2OCN1c1c(Cl)cccc1Cl` (stereo not drawn) [Example 1.13], the IC50 on WEE1 kinase enzyme came to 144 nM.

`O=C1c2cnc(Nc3ccc4c(c3)CNCC4)nc2SCN1c1c(Cl)cccc1Cl` [Example 1.233]: the IC50 worked out at 165 nM on WEE1 kinase enzyme and 7210 nM in the test on A427 cells.

As to `O=C(CO)N1CCN(c2ccc(Nc3ncc4c(n3)OCN(c3c(Cl)cccc3Cl)C4=O)cc2)CC1` [Example 1.8], the IC50 on WEE1 kinase enzyme came to 162 nM.

Regarding `O=C(CO)N1CCc2ccc(Nc3ncc4c(n3)OCN(c3c(Cl)cccc3Cl)C4=O)cc2C1` [Example 1.7], the IC50 on WEE1 kinase enzyme turned out to be 74 nM.

As to `CN(C)Cc1c[nH]c2cc(Nc3ncc4c(n3)OCN(c3c(Cl)cccc3Cl)C4=O)ccc12` [Example 1.107], the IC50 on WEE1 kinase enzyme stood at 110 nM; with A427 cells, 7700 nM.

As to `O=C1c2cnc(Nc3ccc4c(c3)CCNC4)nc2SCN1c1c(Cl)cccc1Cl` [Example 1.234], the IC50 came to 202 nM on WEE1 kinase enzyme and 4840 nM in the test on A427 cells.

On to `CC1CCN(c2ccc(Nc3ncc4c(n3)OCN(c3c(Cl)cccc3Cl)C4=O)cc2)CC1` [Example 1.59, 3-(2,6-dichlorophenyl)-7-(4-(4-methylpiperidin-1-yl)phenylamino)-2H-pyrimido[5,4-e][1,3]oxazin-4(3H)-one], for which the 50% inhibitory concentration (IC50) on WEE1 kinase enzyme was greater than 5000 nM; with A427 cells it was 14000 nM.

Regarding `C[C@H]1CN(c2ccc(Nc3ncc4c(n3)OCN(c3c(Cl)cccc3Cl)C4=O)cc2Cl)CCN1` [Example 1.229], the IC50 on WEE1 kinase enzyme amounted to 185 nM; in the test on A427 cells, 2250 nM.

Regarding `CN1CCN(c2ccc(Nc3ncc4c(n3)OCN(c3c(F)cccc3Cl)C4=O)cc2)CC1` [Example 1.25], the 50% inhibitory concentration (IC50) at WEE1 kinase enzyme is 68 nM.

As for `CC1(C)CNCc2cc(Nc3ncc4c(n3)OCN(c3ccc(F)cc3Cl)C4=O)ccc21` [Example 1.14], the IC50 on WEE1 kinase enzyme came out at 173 nM.

On to `CC(C)(O)C(=O)N1Cc2cc(Nc3ncc4c(n3)OCN(c3c(Cl)cccc3Cl)C4=O)ccc2C(C)(C)C1` [Example 1.6], for which the IC50 at WEE1 kinase enzyme is 279 nM.

In the case of `CC1(C)CNCc2cc(Nc3ncc4c(n3)SCN(c3c(Cl)cccc3Cl)C4=O)ccc21` [Example 1.231], the IC50 was determined as 142 nM at WEE1 kinase enzyme and 2230 nM with A427 cells.

Take `O=C1c2cnc(Nc3ccc(N4CCC(F)(F)CC4)cc3)nc2OCN1c1c(Cl)cccc1Cl` [Example 1.63]: on WEE1 kinase enzyme, the concentration for half-maximal inhibition (IC50) was greater than 5000 nM.

Regarding `CN(C)C1CCN(c2ccc(Nc3ncc4c(n3)SCN(c3c(Cl)cccc3Cl)C4=O)cc2Cl)CC1` [Example 1.240], the 50% inhibitory concentration (IC50) on WEE1 kinase enzyme is 303 nM; in the test with A427 cells, 1640 nM.

As to `O=C1c2cnc(Nc3ccc4c(c3)CN(CC(F)F)CC4)nc2OCN1c1c(Cl)cccc1Cl` [Example 1.65], the IC50 at WEE1 kinase enzyme amounted to 1330 nM.

On to `CCN1CCN(c2ccc(Nc3ncc4c(n3)OCN(c3c(Cl)cccc3Cl)C4=O)cc2)CC1` [Example 1.18], for which the IC50 at WEE1 kinase enzyme came out at 192 nM.

For the compound `CN1CCN(c2ccc(Nc3ccc4c(n3)OCN(c3c(Cl)cccc3Cl)C4=O)cc2)CC1` [Example 1.31, 3-(2,6-dichlorophenyl)-7-(4-(4-methylpiperazin-1-yl)phenylamino)-2H-pyrido[3,2-e][1,3]oxazin-4(3H)-one], the half-maximal inhibitory concentration (IC50) at WEE1 kinase enzyme was 30000 nM.

On to `O=C1c2cnc(Nc3ccc4cnccc4c3)nc2OCN1c1c(Cl)cccc1Cl` [Example 1.64], for which, at WEE1 kinase enzyme, the IC50 was greater than 5000 nM.

Take `CCS(=O)(=O)N1CCN(c2ccc(Nc3ncc4c(n3)OCN(c3c(Cl)cccc3Cl)C4=O)cc2)CC1` [Example 1.15]: on WEE1 kinase enzyme, the IC50 came to 1560 nM.

Regarding `O=C1NCCc2ccc(Nc3ncc4c(n3)OCN(c3c(Cl)cccc3Cl)C4=O)cc21` [Example 1.23], the IC50 at WEE1 kinase enzyme is 607 nM.

Take `O=C1c2cnc(Nc3ccc(N4CCN(C5CC5)CC4)cc3)nc2OCN1c1c(Cl)cccc1Cl` [Example 1.21]: the IC50 on WEE1 kinase enzyme turned out to be 1390 nM.

On to `O=C1c2cnc(Nc3ccc(N4CCOCC4)cc3)nc2OCN1c1c(Cl)cccc1Cl` [Example 1.2], for which the IC50 at WEE1 kinase enzyme was 3260 nM.

On to `O=C1c2cnc(Nc3ccc(N4CCNCC4)cc3)nc2OCN1c1ccccc1Cl` [Example 1.9], for which the IC50 at WEE1 kinase enzyme is 193 nM.

For the compound `CC1(C)CNCc2cc(Nc3ncc4c(n3)OCN(c3c(F)cccc3Cl)C4=O)ccc21` [Example 1.28], the IC50 on WEE1 kinase enzyme was 35 nM.

In the case of `CC1Oc2nc(Nc3ccc(N4CCNCC4)cc3)ncc2C(=O)N1c1c(Cl)cccc1Cl` (stereo not drawn) [Example 1.17], the IC50 at WEE1 kinase enzyme was 156 nM.

Take `CC1CNCCN1c1ccc(Nc2ncc3c(n2)OCN(c2c(Cl)cccc2Cl)C3=O)cc1` (stereo not drawn) [Example 1.26]: the IC50 on WEE1 kinase enzyme is 88 nM.
